# pIC50: −log10 of the molar value. Read-outs that look alike come from different tables or passages of the source.
# What was measured:
# [1] = tested on: pCTD Ser5 in HCT116 cells; assay: Phospho-carboxyl terminal domain (Ser5) p-CTD (S5) cell based Acumen assay; conditions: read-out: Relative IC50 for pCTD Ser5
# Method: HCT116 cells (ATCC CCL-247) are cultured in McCoy’s 5A Medium Modified media supplemented with 10% FBS, 1% NaPyr, and 1% Pen/Strep and plated (prior to becoming 70% confluent) in 96-well flat-bottom plates at a density of 5,000 cells per well in 100 µL volume. The cells are incubated overnight in a cell culture incubator (5% CO2, 95% Relative Humidity (RH), and 37° C.) and allowed to attach to the plate. The following morning, the cells are dosed with compounds. Compound inhibitors are solubilized at 60 µM in culture medium containing 0.6% DMSO. Subsequently compound serial dilutions (1:3) are prepared over a 60 µM to 0.003 µM range. Cells are dosed with the addition of 50 µL from serial dilution plate to assay plate containing cell attached with 100 µL of media producing a final DMSO concentration of 0.2% with a final compound concentration dose range between 20 and 0.001 µM. For max point media containing 0.2% of DMSO is used and for min point, a reference compound diluted at 0.83 µM final concentration in the growth media containing 0.2% DMSO is used. After dosing with compounds, the cell plates are incubated at 37° C. and 5% CO2 for 4 hours. Growth media is removed carefully and the cells are fixed by adding 100 µL of 4% para-formaldehyde for 30 minutes at RT. Cell are washed once with PBS and incubated with 100 µL of cold MeOH for 15 minutes at RT for cell permeation. Again cells are washed twice with PBS (100 µL/each) and blocked with 100 µL/well of 1% BSA/PBS for 30 min at RT. 50 µL of 1:1000 primary antibody (Anti-phosphoCTD Ser5 Bethyl Laboratories cat# A300-655A) dilution in 1% BSA/PBS are added per well, the plates are sealed and incubated overnight at 4° C.
# The following day cells are washed three times with PBS (100 µL/well) and incubated with 50 µL/well of secondary antibody (1:2000 dilution, Goat anti-rabbit IgM ALEXA FLUOR™ 488) in PBS for 1 hourr at room temperature. After washing 3× with PBS (100 µL/well), 100 µL, of 50 µg/mL RNAase (Sigma) and 1:1000 propidium iodide dilution in PBS are added per well. Plates are sealed and incubated for 1 hour at RT on the bench (preserved from light). Plates are analyzed on Acumen on FL2 (mean intensity), and FL3 (total intensity). Fluorescence plates are scanned with ACUMEN EXPLORER™ [Laser-scanning fluorescence microplate cytometer manufactured by TTP LABTECH LTD] to measure anti-phospho-carboxyl terminal domain at Serine 5 (pCTD). Image analysis is based on cellular fluorescent signals for identifying positive cells. pCTD (S5) positive cells are identified by mean intensity at 500-530 above the threshold. Total intensity at 575-640 from propidium iodide/DNA is used to identify individual cells. Assay output is % pCTD positive cells. The IC50 is determined by curve fitting to a four parameter logistic for each output using GENE DATA™.
# [2] = tested on: panel of 468 human kinases; assay: DiscoverX KINOMEscan selectivity profiling, 468 kinase panel; type: binding; conditions: CDK7 the only kinase with less than 35% control activity at 0.2 µM
# Method: The purpose of the study is to generate an in vitro selectivity profile of the compounds of Example 8. To address selectivity, the compound of Example 8 is tested in a panel of 468 human kinases at DiscoverX Corporation using the KINOMEscan™ screening platform. KINOMEscan™ employs a novel and proprietary active site-directed competition binding assay to quantitatively measure interactions between test compounds and more than 450 human kinases and disease relevant mutant variants.
# Compounds that bind the kinase active site and directly (sterically) or indirectly (allosterically) prevent kinase binding to an immobilized ligand, will reduce the amount of kinase captured on the solid support. […] Compound activity is monitored by measuring the amount of kinase captured in test versus control samples by using a qPCR method that detects the associated DNA label. Further information regarding the DiscoverX Corporation KINOMEscan™ screening platform can be found at http://www.discoverx.com.
# Assays to monitor binding to a 468 kinase panel were conducted at DiscoverXⓇ Corporation (Fremont, CA). Example 8 is tested at 20 µM, 2 µM, and 0.2 µM final concentrations. Kinases are tagged with DNA for qPCR detection. […] The kinase concentration in the eluates is measured by qPCR. […]
SMILES,"pIC50 ([1]; Homo sapiens, HCT-116, 4 h)",selectivity against the 468 protein kinases panel [2],pIC50 ([1]; 4 hours)
"C=CC(=O)N1CCO[C@H](CN2CCC(Nc3cc(C(F)(F)F)cn4c(C(C)C)cnc34)CC2)C1 [Example 8, 1-[(2R)-2-[[4-[[3-isopropyl-6-(trifluoromethyl)imidazo[1,2-a]pyridin-8-yl]amino]-1-piperidyl]methyl]morpholin-4-yl]prop-2-en-1-one]",7.58,excellent selectivity,
"[2H]C([2H])=C([2H])C(=O)N1CCO[C@H](CN2CCC(Nc3cc(C(F)(F)F)cn4c(C(C)C)cnc34)CC2)C1 [Example 6, 2,3,3-trideuterio-1-[(2R)-2-[[4-[[3-isopropyl-6-(trifluoromethyl)imidazo[1,2-a]pyridin-8-yl]amino]-1-piperidyl]methyl]morpholin-4-yl]prop-2-en-1-one]",7.80,,
"C=CC(=O)N1CCO[C@H](CN2CCC(Nc3cc(C(C)O)cn4c(C(C)C)cnc34)CC2)C1 (single isomer, unassigned) [Example 4]",,,7.26
"C=CC(=O)N1CCO[C@H](CN2CCC(Nc3cc(C(C)O)cn4c(C(C)C)cnc34)CC2)C1 (single isomer, unassigned) [Example 5]",,,6.93
"[2H]CC([2H])(C)c1cnc2c(NC3CCN(C[C@@H]4CN(C(=O)C=C)CCO4)CC3)cc(C(F)(F)F)cn12 (mixture of isomers) [Example 7, 1-[(2R)-2-[[4-[[3-[rac-1,2-dideuterio-1-methyl-ethyl]-6-(trifluoromethyl)imidazo[1,2-a]pyridin-8-yl]amino]-1-piperidyl]methyl]morpholin-4-yl]prop-2-en-1-one]",7.14,,
"C=CC(=O)N1CCO[C@H](CN2CCC(Nc3cc(C(C)F)cn4c(C(C)C)cnc34)CC2)C1 (single isomer, unassigned) [Example 2]",,,6.79
"C=CC(=O)N1CCO[C@H](CN2CCC(Nc3cc(C(C)F)cn4c(C(C)C)cnc34)CC2)C1 (single isomer, unassigned) [Example 1]",6.79,,
